Where two headings read alike, the source gives them in different places.
Key:
[1] = system: caspase-3 in Caco-2 cells; assay: Determination of active caspase-3 by flow cytometry; type: cell-based, human; settings: Caco-2, 48 h; 3a 5.0 µM, 3b 10.2 µM
Procedure: (§1) Caco-2 cells were seeded in 75 cm^2 flask at a density of 1 × 10^4 cells/cm^2 and, 24 h later, exposed to drug panel for 48 h. Then cells were collected and processed following instructions by Sánchez-de-Diego et al. Finally, 50 µL of every sample were incubated with 5 µL anti-active caspase-3 (BD Pharmigen, Clone C92-605) and 5 µL p53 antibody (Miltenyi, Clone REA609).

[2] = system: p53 in Caco-2 cells; assay: Determination of p53 by flow cytometry; type: cell-based, human; settings: Caco-2, 48 h, versus non-treated cells
Procedure: as §1

[3] = system: Caco-2 cells; assay: Propidium iodide staining of DNA content and cell cycle analysis; type: cell-based, human; settings: 3a 5.0 µM, 3b 10.2 µM; for cells in G0-G1 phase, 40 °C / cells in G2-M phase, 40 °C / cells in S phase, 40 °C: Caco-2, 1 h at 40 °C plus 47 h at 37 °C; for cell cycle progression: Caco-2, 48 h; for cells in G0-G1 phase, 37 °C / cells in G2-M phase, 37 °C / cells in S phase, 37 °C: Caco-2, 48 h at 37 °C
Procedure: Caco-2 cells were seeded in 25 cm^2 flasks at a density of 1 × 10^4 cells/cm^2 and 24 h post-seeding, were exposed to drug panel for 48 h. Cells were fixed as described by Sánchez-de-Diego et al. before staining them with 50 μg/mL PI solution.

[4] = target: T1, Recombinant Human TrxR1 (Homo sapiens, UniProt Q16881); assay: Thioredoxin reductase 1 (TrxR1) activity assay; type: biochemical; settings: auranofin 25 µM; 3a and 3b at IC50 concentrations
T1 construct: purchased Sigma-Aldrich SRP6081
T1 sequence (Q16881 151-649 limits assumed): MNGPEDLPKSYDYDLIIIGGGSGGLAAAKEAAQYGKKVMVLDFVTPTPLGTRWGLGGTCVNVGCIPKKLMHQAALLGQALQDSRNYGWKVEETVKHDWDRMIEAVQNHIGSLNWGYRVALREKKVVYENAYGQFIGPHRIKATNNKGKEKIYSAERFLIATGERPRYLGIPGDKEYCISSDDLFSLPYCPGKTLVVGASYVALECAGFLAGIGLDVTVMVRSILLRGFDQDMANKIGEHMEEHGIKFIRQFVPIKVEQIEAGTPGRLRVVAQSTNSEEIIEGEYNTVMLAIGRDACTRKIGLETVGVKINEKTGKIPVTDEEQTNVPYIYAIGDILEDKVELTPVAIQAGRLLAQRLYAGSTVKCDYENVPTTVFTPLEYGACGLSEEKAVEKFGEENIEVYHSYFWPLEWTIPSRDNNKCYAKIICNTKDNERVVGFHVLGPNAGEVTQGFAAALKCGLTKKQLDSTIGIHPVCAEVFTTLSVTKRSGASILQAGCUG
Procedure: Recombinant Human TrxR1 (Sigma-Aldrich SRP6081, St. Louis, MO, USA) was incubated in a 96 well plate with different concentration of Au complex previously dissolved in 25 μL of PBS at pH 7.4. The cell solution was incubated in shake motion for 5 min at 37 °C. After incubation time, procedure in Thioredoxin Reductase Assay Kit (Sigma-Aldrich CS0170, St. Louis, MO, USA) was followed. Finally, reaction was started by adding 6 μL DNTB and absorbance at 405 nm was recorded every 30 s for 22 min as a measure of Thioredoxin Reductase Activity.

[5] = system: Caco-2/TC7 cells; assay: MTT cytotoxicity / antiproliferative assay on Caco-2/TC7 cells; type: cell-based, human
Procedure: Human fibroblast cells were kindly provided by Dr. Julio Montoya (Unidad de Bioquímica, Facultad de Veterinaria, Universidad de Zaragoza, Spain). Caco-2 cells (passages 40–70) and fibroblasts (passages 10–30) were maintained in a humidified atmosphere of 5% CO2 at 37 °C. Cells were grown in Dulbecco’s Modified Eagles medium (DMEM) (Gibco Invitrogen, Paisley, UK) supplemented with 20% fetal bovine serum (FBS), 1% non-essential amino acids, 1% penicillin (1000 U/mL), 1% streptomycin (1000 μg/mL) and 1% amphotericin (250 U/mL). […] Caco-2 cells were sub-cultured on 25 cm^2 plastic flasks at a density of 1.2 × 10^4 cells/cm^2, while fibroblasts were sub-cultured on 75 cm^2 plastic flasks at a density of 1 × 10^4 cells/cm^2. Culture medium was replaced every 2 days.
Gold complex was diluted in dimethyl sulfoxide (DMSO) to a stock solution at 20 mM and then re-diluted to a working solution at 2.5 mM before diluting it in cell culture medium to treat cells at desired concentrations.
The influence of hyperthermia was studied by incubating cells at 40 °C for 1 h immediately after treating them with the gold complexes.
For cytotoxicity screening assays, Caco-2 cells were seeded in 96-well plates at a density of 4 × 10^3 cells/well. Culture medium was replaced with medium containing drug panel 24 h post-seeding and cells were incubated for 72 h. In fibroblasts, culture medium containing metal gold complexes was added 10 days post-seeding. Antiproliferative effect was measured with MTT assay as previously described by Mármol et al.. […] To determine the selectivity index (SI) the IC50 value in fibroblasts was divided by IC50 value in Caco-2, obtaining a ratio cancerous/normal cells toxicity.

[6] = 37 °C values rounded, read-out: IC50 values in Caco-2
[7] = 72 h, MTT, 37 °C, mean ± SE, read-out: IC50 Caco-2/TC7 37 °C
[8] = read-out: IC50 Caco-2/TC7 40 °C, 72 h, MTT, 1 h at 40 °C immediately after treatment (hyperthermia), mean ± SE

Row | Compound | caspase-3 activation (cells with active caspase-3) [1] | p53 accumulation [2] | cells in G0-G1 phase, 40 °C [3] [%] | cells in G2-M phase, 40 °C [3] [%] | cells in S phase, 40 °C [3] [%] | cell cycle progression [3] | cells in G0-G1 phase, 37 °C [3] [%] | cells in G2-M phase, 37 °C [3] [%] | cells in S phase, 37 °C [3] [%] | TrxR1 activity related to control [4] | IC50 [5, 6] [µM] | IC50 [5, 7] [µM] | IC50 [5, 8] [µM]
1 | CCCCCCCC[N+]12CN3CN(C1)C[P+]([Au-][S]c1ccccn1)(C3)C2.[I-] [Complex 3a, [Au(C5H5NS)(PTA-CH2(CH2)6CH3)]I] | could induce caspase-3 activation | could induce p53 accumulation | 63.7 | 27.78 | 8.56 | increasing amount of cells in G0-G1 phase | 43.3 | 14.4 | 42.4 | Inhibitory effect | 2.5 | 2.49 ± 0.31 | 2.05 ± 0.32
2 | FC(F)(F)C(F)(F)C(F)(F)C(F)(F)C(F)(F)C(F)(F)CC[N+]12CN3CN(C1)C[P+]([Au-][S]c1ccccn1)(C3)C2.O=S(=O)([O-])C(F)(F)F [Complex 3b, [Au(C5H5NS)(PTA-CH2CH2(CF2)5CF3)](TfO)] | could induce caspase-3 activation | could induce p53 accumulation | 48.1 | 17.2 | 34.7 | increasing amount of cells in G0-G1 phase | 41.4 | 12.5 | 46.1 | Inhibitory effect | 5.1 | 5.11 ± 1.25 | 4.26 ± 0.34

— publication PMC8698759, “Gold(I) Complexes Bearing Alkylated 1,3,5-Triaza-7-phosphaadamantane Ligands as Thermoresponsive Anticancer Agents in Human Colon Cells” (Biomedicines, 2021)
